Assay results taken from patent US9783536B2, “Nitrogen-containing heterocyclic compound or salt thereof” (FUJIFILM Corporation, priority 2013, dated 2017).
Like-named read-outs stand apart in the source and are kept apart here.

Experiments:
human PI3Kα protein = biological target: T1, human PI3Kα protein (Homo sapiens, UniProt P42336); assay: PI3Kα enzyme assay (ADP-Glo); assay type: biochemical; details: read-out: PI3Kα enzyme inhibitory activity
T1 construct: purchased Carna Biosciences, Inc; host or cells: baculovirus expression system
T1 sequence (P42336 whole entry): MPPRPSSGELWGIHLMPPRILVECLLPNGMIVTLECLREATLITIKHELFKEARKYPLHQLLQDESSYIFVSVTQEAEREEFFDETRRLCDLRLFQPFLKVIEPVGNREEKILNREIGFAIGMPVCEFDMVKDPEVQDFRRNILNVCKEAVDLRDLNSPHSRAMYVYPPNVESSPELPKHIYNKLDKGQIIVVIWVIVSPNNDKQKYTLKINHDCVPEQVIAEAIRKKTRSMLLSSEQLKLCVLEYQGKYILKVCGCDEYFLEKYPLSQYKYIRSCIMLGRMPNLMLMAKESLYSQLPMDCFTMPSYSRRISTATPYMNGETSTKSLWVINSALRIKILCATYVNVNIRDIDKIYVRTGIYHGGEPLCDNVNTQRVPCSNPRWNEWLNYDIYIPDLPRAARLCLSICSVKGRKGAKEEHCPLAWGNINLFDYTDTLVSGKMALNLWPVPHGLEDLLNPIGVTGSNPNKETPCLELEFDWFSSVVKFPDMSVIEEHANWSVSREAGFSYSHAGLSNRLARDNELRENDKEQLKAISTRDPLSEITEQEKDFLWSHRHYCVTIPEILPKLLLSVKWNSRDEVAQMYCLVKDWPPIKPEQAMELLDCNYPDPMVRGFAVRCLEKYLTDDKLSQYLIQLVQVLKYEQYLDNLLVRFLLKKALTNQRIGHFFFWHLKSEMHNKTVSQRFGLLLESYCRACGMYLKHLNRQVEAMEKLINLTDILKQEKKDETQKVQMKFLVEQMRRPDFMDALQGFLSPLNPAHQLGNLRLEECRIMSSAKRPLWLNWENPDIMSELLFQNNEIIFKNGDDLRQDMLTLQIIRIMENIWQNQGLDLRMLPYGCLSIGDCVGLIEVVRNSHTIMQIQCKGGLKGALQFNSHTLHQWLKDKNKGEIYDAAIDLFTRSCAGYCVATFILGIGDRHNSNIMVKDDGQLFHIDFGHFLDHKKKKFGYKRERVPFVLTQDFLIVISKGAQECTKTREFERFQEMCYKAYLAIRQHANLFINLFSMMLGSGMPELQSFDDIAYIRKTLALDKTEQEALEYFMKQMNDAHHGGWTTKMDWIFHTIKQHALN
T1 sequence (P27986 whole entry partner): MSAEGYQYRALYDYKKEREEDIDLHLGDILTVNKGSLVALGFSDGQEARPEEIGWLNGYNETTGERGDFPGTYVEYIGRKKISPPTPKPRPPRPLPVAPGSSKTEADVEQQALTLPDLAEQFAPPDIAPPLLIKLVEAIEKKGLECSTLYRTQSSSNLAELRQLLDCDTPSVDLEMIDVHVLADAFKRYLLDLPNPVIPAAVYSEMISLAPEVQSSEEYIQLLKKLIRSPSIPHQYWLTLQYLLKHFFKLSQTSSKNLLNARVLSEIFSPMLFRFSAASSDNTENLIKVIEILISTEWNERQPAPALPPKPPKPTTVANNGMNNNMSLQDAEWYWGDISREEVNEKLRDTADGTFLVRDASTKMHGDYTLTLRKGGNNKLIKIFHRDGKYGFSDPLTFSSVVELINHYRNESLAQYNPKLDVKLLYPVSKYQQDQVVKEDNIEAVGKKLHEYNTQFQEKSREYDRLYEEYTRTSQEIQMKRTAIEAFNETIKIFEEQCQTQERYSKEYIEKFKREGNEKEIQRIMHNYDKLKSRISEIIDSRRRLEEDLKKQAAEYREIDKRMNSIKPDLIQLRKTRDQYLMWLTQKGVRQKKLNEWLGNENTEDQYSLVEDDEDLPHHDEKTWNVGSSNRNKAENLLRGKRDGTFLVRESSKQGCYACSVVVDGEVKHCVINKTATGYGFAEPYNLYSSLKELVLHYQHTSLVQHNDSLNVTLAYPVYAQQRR
In short: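 Biotinylated human PI3Kα (baculovirus-expressed, 4.5 nmol/L) pre-incubated 15 min with compound in Tris-HCl pH 7.5, MgCl2, BSA; reaction 60 min at 25° C with 50 μmol/L PIP2 and 100 μmol/L ATP final. ADP quantified by ADP-Glo luminescence; IC50 calculated.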

[1] = biological target: T2, GST fusion human ERK2 protein (Homo sapiens, UniProt P28482); assay: ERK2 enzyme assay (2); assay type: biochemical; details: read-out: ERK2 enzyme inhibitory activity (2)
T2 construct: purchased Carna Biosciences, Inc; host or cells: E. coli expression system
T2 sequence (P28482 whole entry, the tested form may be a part): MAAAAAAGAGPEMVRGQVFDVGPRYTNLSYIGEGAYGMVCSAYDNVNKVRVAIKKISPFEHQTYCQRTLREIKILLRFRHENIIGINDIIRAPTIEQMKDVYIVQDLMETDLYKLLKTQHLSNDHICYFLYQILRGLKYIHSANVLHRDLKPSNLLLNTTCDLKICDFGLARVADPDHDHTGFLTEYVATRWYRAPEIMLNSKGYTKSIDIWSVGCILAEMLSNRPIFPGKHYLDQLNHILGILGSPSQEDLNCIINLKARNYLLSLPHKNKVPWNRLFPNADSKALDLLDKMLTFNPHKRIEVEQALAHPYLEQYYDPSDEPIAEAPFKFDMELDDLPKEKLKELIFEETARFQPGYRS
In short: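 IC50 values come from mobility-shift measurement of phosphorylated versus unphosphorylated 5-FAM peptide substrate after EDTA quench. Beforehand, compound and 1.25 nmol/L E. coli-expressed GST–human ERK2 stood 15 min at room temperature (pH 7.5), then 1 mmol/L ATP and 4.25 μmol/L substrate (final) were added for 120 min at 25 °C.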

Structure (SMILES)	IC50 (human PI3Kα protein) [nM]	IC50 ([1]; ERK2 enzyme assay (2)) [nM]	IC50 [1] [nM]
CC(C)c1cnnc(Nc2ccc3ncc(-c4cnn(C(C)c5ccccn5)c4)cc3n2)c1 (stereo not drawn) [Example 0414]	< 1000	< 1000	
CC(C)c1cnnc(Nc2ccc3ncc(N4CCCCC4)cc3n2)c1 [Example 0845, N-(5-isopropylpyridazin-3-yl)-7-(piperidin-1-yl)-1,5-naphthyridine-2-amine]	1000 to 10000	< 1000	
CC(C)c1cnnc(Nc2ccc3ncc(-c4cn(C)nc4N4CC5(CCO5)C4)cc3n2)c1 [Example 0941]	< 1000		< 1000
CC(C)c1cnnc(Nc2ccc3ncc(-c4cn(C)nc4NC4CCCCCC4)cc3n2)c1 [Example 0949]	1000 to 10000		1000 to 10000
CC(C)c1cnnc(Nc2ccc3ncc(-c4cnn(CC(F)(F)CN5CCCC5)c4)cc3n2)c1 [Example 0735, 7-(1-(2,2-Difluoro-3-(pyrrolidin-1-yl)propyl)-1H-pyrazol-4-yl)-N-(5-isopropylpyridazin-3-yl)-1,5-naphthyridine-2-amine]	< 1000	< 1000	
CC(C)c1cnnc(Nc2ccc3ncc(N4CCN(C)C(=O)C4)cc3n2)c1 [Example 0887]	< 1000	1000 to 10000	
Cc1cn(-c2cnc3ccc(Nc4cc(C(C)C)cnn4)nc3c2)c(C)n1 [Example 0698, 7-(2,4-dimethyl-1H-imidazol-1-yl)-N-(5-isopropylpyridazin-3-yl)-1,5-naphthyridine-2-amine]	1000 to 10000	< 1000	
CC(C)c1cnnc(Nc2ccc3ncc(-c4cn(C)nc4CN4CCOCC4)cc3n2)c1 [Example 0942, N-(5-isopropylpyridazin-3-yl)-7-(1-methyl-3-(morpholinomethyl)-1H-pyrazol-4-yl)-1,5-naphthyridine-2-amine]	< 1000		< 1000
CC(C)c1cnnc(Nc2ccc3ncc(C(=O)NCCCO)cc3n2)c1 [Example 0663]	1000 to 10000	1000 to 10000	
CC(C)c1cnnc(Nc2ccc3ncc(N4CCC(F)(F)CC4)cc3n2)c1 [Example 0858]	1000 to 10000	< 1000	
Cn1cc(-c2cnc3ccc(Nc4cc(C5CCC5)cnn4)nc3c2)cn1 [Example 0577, N-(5-cyclobutylpyridazin-3-yl)-7-(1-methyl-1H-pyrazol-4-yl)-1,5-naphthyridine-2-amine]	< 1000	< 1000	
CC(C)c1cnnc(Nc2ccc3ncc(-c4cn(C)nc4C4CNC4)cc3n2)c1 [Example 0780, 7-(3-(azetidin-3-yl)-1-methyl-1H-pyrazol-4-yl)-N-(5-isopropylpyridazin-3-yl)-1,5-naphthyridine-2-amine]	< 1000	< 1000	
CC(C)c1cnnc(Nc2ccc3ncc(-c4cn(C)nc4N4CCCCC4)cc3n2)c1 [Example 0936]	< 1000		< 1000
Cn1cc(-c2cnc3ccc(Nc4cc(C(C)(C)CO)cnn4)nc3c2)cn1 [Example 0560, 2-methyl-2-(6-((7-(1-methyl-1H-pyrazol-4-yl)-1,5-naphthyridin-2-yl)amino)pyridazin-4-yl)propan-1-ol]	< 1000	< 1000	
CC(C)c1cnnc(Nc2ccc3ncc(-c4cnn(CCN5CC(O)C5)c4)cc3n2)c1 [Example 0612]	< 1000	< 1000	
CC(C)c1cnnc(Nc2ccc3ncc(-c4cn(C)nc4-c4ccc(N)nc4)cc3n2)c1 [Example 0461, 7-(3-(6-aminopyridin-3-yl)-1-methyl-1H-pyrazol-4-yl)-N-(5-isopropylpyridazin-3-yl)-1,5-naphthyridine-2-amine]	< 1000	< 1000	
CC(=O)Nc1nn(C)cc1-c1cnc2ccc(Nc3cc(C(C)C)cnn3)nc2c1 [Example 0690, N-(4-(6-((5-isopropylpyridazin-3-yl)amino)-1,5-naphthyridin-3-yl)-1-methyl-1H-pyrazol-3-yl)acetamide]	< 1000	< 1000	
CC(C)Oc1cnnc(Nc2ccc3ncc(-c4cnn(CCCN5CCOCC5)c4)cc3n2)c1 [Example 0501]	1000 to 10000	1000 to 10000	
CC(C)c1cnnc(Nc2ccc3ncc(-c4cnn(CC(=O)N5CCCCC5)c4)cc3n2)c1 [Example 0561]	< 1000	< 1000	
CC(C)c1cnnc(Nc2ccc3ncc(N4CC(OCC5CC5)C4)cc3n2)c1 [Example 0869]	1000 to 10000	< 1000	
CC(C)c1cnnc(Nc2ccc3ncc(-c4cnn(CC5CC5)c4)cc3n2)c1 [Example 0581]	< 1000	< 1000	
CC(C)c1cnnc(Nc2ccc3ncc(-c4cnn(CCCN5CCN(C)CC5=O)c4)cc3n2)c1 [Example 0425]	< 1000	< 1000	
CC(C)c1cnnc(Nc2ccc3ncc(-c4cn(C)nc4-c4cnn(C)c4)cc3n2)c1 [Example 0582]	< 1000	< 1000	

Structure (SMILES)	IC50 (human PI3Kα protein) [nM]	IC50 ([1]; ERK2 enzyme assay (2)) [nM]	IC50 [1] [nM]
Cc1nn(C)cc1-c1cnc2ccc(Nc3cc(C(C)C)no3)nc2c1 [Example 0848, N-(7-(1,3-dimethyl-1H-pyrazol-4-yl)-1,5-naphthyridin-2-yl)-3-isopropylisoxazole-5-amine]	1000 to 10000	1000 to 10000	
Cc1ccnnc1Nc1ccc2ncc(-c3cnn(C)c3)cc2n1 [Example 0489]	10000 to 50000	1000 to 10000	
Cc1nn(C)nc1-c1cnc2ccc(Nc3cc(C(C)C)cnn3)nc2c1 [Example 0720, 7-(2,5-Dimethyl-2H-1,2,3-triazol-4-yl)-N-(5-isopropylpyridazin-3-yl)-1,5-naphthyridine-2-amine]	< 1000	< 1000	
Cc1ncccc1-c1cnc2ccc(Nc3cc(C(C)C)cnn3)nc2c1 [Example 0599]	1000 to 10000	< 1000	
CC(C)c1cnnc(Nc2ccc3ncc(-c4cnn(CC#N)c4)cc3n2)c1 [Example 0928, 2-(4-(6-((5-isopropylpyridazin-3-yl)amino)-1,5-naphthyridin-3-yl)-1H-pyrazol-1-yl)acetonitrile]	< 1000		< 1000
CC(C)c1cnnc(Nc2ccc3ncc(-c4cnn(CCCN5CC(OCC(F)F)C5)c4)cc3n2)c1 [Example 0714]	< 1000	< 1000	
CC(C)c1cnnc(Nc2ccc3ncc(-c4cn(C)nc4NCc4ccccn4)cc3n2)c1 [Example 0834]	< 1000	< 1000	
CC(C)c1cnnc(Nc2ccc3ncc(-n4cnc5ccccc54)cc3n2)c1 [Example 0512]	1000 to 10000	< 1000	
CC(C)c1cnnc(Nc2ccc3ncc(-c4ncccn4)cc3n2)c1 [Example 0605]	< 1000	< 1000	
CC(C)c1cnnc(Nc2ccc3ncc(-c4cn(C)nc4-c4ccccn4)cc3n2)c1 [Example 0838, N-(5-isopropylpyridazin-3-yl)-7-(1-methyl-3-(pyridin-2-yl)-1H-pyrazol-4-yl)-1,5-naphthyridine-2-amine]	< 1000	< 1000	
CC(C)c1cnnc(Nc2ccc3ncc(C(=O)NCCCCO)cc3n2)c1 [Example 0664]	1000 to 10000	1000 to 10000	
CC(C)c1cnnc(Nc2ccc3ncc(-c4cnn(CCOC5CNC5)c4)cc3n2)c1 [Example 0740, 7-(1-(2-(azetidin-3-yloxy)ethyl)-1H-pyrazol-4-yl)-N-(5-isopropylpyridazin-3-yl)-1,5-naphthyridine-2-amine]	< 1000	< 1000	
CC(C)c1cnnc(Nc2ccc3ncc(-c4cnccn4)cc3n2)c1 [Example 0606]	1000 to 10000	< 1000	
COCCC(=O)Nc1cnc2ccc(Nc3cc(C(C)C)cnn3)nc2c1 [Example 0632, N-(6-((5-isopropylpyridazin-3-yl)amino)-1,5-naphthyridin-3-yl)-3-methoxypropanamide]	< 1000	1000 to 10000	
CC(C)c1cnnc(Nc2ccc3ncc(-c4cnn(C)c4)c(-c4ccncc4)c3n2)c1 [Example 0953, N-(5-isopropylpyridazin-3-yl)-7-(1-methyl-1H-pyrazol-4-yl)-8-(pyridin-4-yl)-1,5-naphthyridine-2-amine]	< 1000		< 1000
Cc1nn(CCCO)cc1-c1cnc2ccc(Nc3cc(C(C)C)cnn3)nc2c1 [Example 0800, 3-(4-(6-((5-Isopropylpyridazin-3-yl)amino)-1,5-naphthyridin-3-yl)-3-methyl-1H-pyrazol-1-yl)propan-1-ol]	< 1000	< 1000	
CC(C)c1cnnc(Nc2ccc3ncc(-c4cn(C)nc4Nc4cccnc4)cc3n2)c1 [Example 0469]	< 1000	< 1000	
CC(C)c1cnnc(Nc2ccc3ncc(-c4ccc(=O)n(CCCN5CCOCC5)c4)cc3n2)c1 [Example 0618]	< 1000	< 1000	
CC(=O)N1CC=C(c2cnc3ccc(Nc4cc(C(C)C)cnn4)nc3c2)CC1 [Example 0882, 1-(4-(6-((5-isopropylpyridazin-3-yl)amino)-1,5-naphthyridin-3-yl)-5,6-dihydropyridine-1(2H)-yl)ethanone]	< 1000	< 1000	
CC(C)c1cnnc(Nc2ccc3ncc(N4CC(Oc5ccccc5)C4)cc3n2)c1 [Example 0860]	1000 to 10000	1000 to 10000	
CC(C)c1cnnc(Nc2ccc3ncc(-c4cn(C)nc4COC4CNC4)cc3n2)c1 [Example 0822, 7-(3-((Azetidin-3-yloxy)methyl)-1-methyl-1H-pyrazol-4-yl)-N-(5-isopropylpyridazin-3-yl)-1,5-naphthyridine-2-amine]	< 1000	< 1000	
CC(C)COC1CN(CCCn2cc(-c3cnc4ccc(Nc5cc(C(C)C)cnn5)nc4c3)cn2)C1 [Example 0708]	< 1000	< 1000	
